Results on one compound are retold here after US11352382B2, “Mito-lonidamine, compositions and methods of use” (THE MEDICAL COLLEGE OF WISCONSIN, INC., priority 2018, dated 2022).

The conditions of data set [1]: patients; cited from earlier work.
For data set [2] the following is noted: at clinically relevant concentrations (<130 μM); cited from earlier work.
The test system of data set [3] is H2030BrM3 cells. Kind of data set: Cellular ROS production, HPLC-based analysis of hydroethidine (HE) oxidation. In kind it is cell-based, human. Particulars: 200 μM, H2030BrM3 cells. The source says: Inhibition of mitochondrial respiration results in increased O2^⋅− and other oxidants.
Data set [4] deals with mitochondrial complexes I and II. Kind of data set: Inhibition of mitochondrial complexes I and II, stated jointly. In kind it is cell-based, human. The source says:
LON and Mito-LON inhibit mitochondrial complex I activity. Mito-LON inhibited cellular respiration (oxygen consumption rate, OCR) at >100-fold lower concentration than LON in intact lung cancer cells (FIG. 9). Both basal respiration and the response to mitochondrial stressors (oligomycin, dinitrophenol) were diminished by Mito-LON (not shown). To investigate the mechanism of mitochondrial inhibition, we measured the activity of mitochondrial complexes in H2030BrM3 cells (NSCLC cell line). The cell membrane was permeabilized, and OCR was measured upon addition of substrates and inhibitors of mitochondrial complexes I-IV (FIG. 9A). These studies established the optimal use of permeabilized cells for complex activity assays.^54 Next, cells were pretreated with LON and Mito-LON for 24 h and experiments performed as in FIG. 9A. […] We hypothesize that inhibition of mitochondrial complexes I and II is the predominant mechanism for antiproliferative effects of Mito-LON on lung cancer cells.

For another data set, the system named is Pancreatic cancer cells. Kind of data set: Anti-proliferative effects in pancreatic cancer cells (number of cells over time). Type of data set: cell-based, human. Particulars: Pancreatic cancer cell; in vitro; b60 words: cancer cells (human pancreatic cancer, lung cancer and brain metastasis); read-out: IC50, inhibiting the proliferation of cancer cells. The procedure: Pancreatic cancer cells were treated with either LND or Mito-LND at varying concentrations and the number of cells was assayed over time.

Data set [5] deals with H2030BrM3 cells. Briefly: Cell proliferation, IncuCyte Live-Cell Imaging Analyzer (cell confluence). Conditions: Homo sapiens, H2030-BrM3; H2030BrM3 cells, IncuCyte, FIG. 14; read-out: IC50, cell proliferation. In kind it is cell-based. The procedure: (§1) In contrast, Mito-LON (1.2-2.7 μM) targets mitochondrial complexes I and II (FIG. 9); its mitochondrial effects are supported by the compartment-selective oxidation of mitochondrial Prx3 (FIG. 13). The anti-proliferative effects of Mito-LON and LON were compared in H2030BrM3 cells.

The test system of data set [6] is H2030BrM3 orthotopic lung adenocarcinoma in nude mice. Kind of data set: Orthotopic lung tumor mouse model. Type of data set: in vivo. Particulars: 7.5 μmol/kg oral gavage 5 times/wk for 3 wks, nude mice. The procedure: Inhibitory effects of Mito-LON in an orthotopic lung tumor mouse model. We conducted a pilot study using an orthotopic model of lung adenocarcinoma (H2030BrM3 cells) in nude mice. Cells (1×10^6 cells/50 μg of growth factor-reduced Matrigel in 50 μL of RPMI-1640) were injected into the lung. One week after injection, mice were treated with the same dose of LON or Mito-LON (7.5 μmol/kg), or vehicle (corn oil), by oral gavage 5 times/wk for 3 wks.

Data set [7] deals with PC9BrM3 and H2030BrM3 brain metastasis lung cancer cell lines. Kind of data set: Boyden chamber (transwell) invasion assay. Particulars: Homo sapiens, H2030-BrM3; LON 100 μM alone; read-out: inhibitory effect on invasion when used alone. In kind it is cell-based. The text has this: Mito-LON inhibits migration and invasion of brain metastatic human lung cancer cells. To investigate the potential of Mito-LON and LON for lung cancer metastasis, we first tested its effects in vitro via the Boyden chamber invasion assay using PC9BrM3 and H2030BrM3 brain metastasis lung cancer cell lines.

A further data set relates to HK2. Kind of data set: HK2 protein levels and mRNA expression in lung cancer lines. In kind it is cell-based, human. The procedure:
as §1
Role of HK2 and additional possible signaling events that contribute to the effects of Mito-LON. […] This could contribute to their effects as many cancers have constitutive ERK activation which promotes survival and proliferation, and ERK1 can play an important role in regulating mitochondrial activity, apoptosis, proliferation and migration. […] AKT is another pro-survival factor that is constitutively activated (phosphorylated) in many cancers.

SMILES strings stand for the structures.

Turning to `O=C(O)c1nn(Cc2ccc(Cl)cc2Cl)c2ccccc12` [LON, 1-(2,4-dichlorobenzyl)-1H-indazole-3-carboxylic acid, reference compound], the “typical peak plasma levels” value in [1] was 17 to 127 µM. Further, in data set [2], the “effectiveness by itself in vitro” value was “only moderately effective”. Moreover, in the data set with H2030BrM3 cells [3], the “intracellular levels of 2-OH-E+ (superoxide-specific product of HE oxidation)” value is recorded as “increase”. For the same compound, the “concentration at which effects on complex I and II occur” value in data set [4] is recorded as “ca. 400 μM”. Also, the IC50 in data set [4] (pretreatment of H2030BrM3 cells, read-out: IC50, inhibition of complex I and II) is around 400 µM; in the data set with Pancreatic cancer cells, 327 µM; with H2030BrM3 cells [5] it was 140 µM; in the data set on HK2 (FIG. 17, read-out: IC50, ability to decrease HK2 levels) it was 100 to 150 µM. Further, the “efficacy in orthotopic lung tumor model” value in data set [6] was “not effective”. In addition, the inhibition at 100 µM in data set [7] is below 10%. In addition, in the data set on HK2 (both lung cancer lines, within 3-6 h), the HK2 levels result is recorded as “decreased HK2 levels”. For the same compound, in the data set with HK2 (not shown), the “decrease of HK2 mRNA expression” value is listed as above 80%.
